Structures can show the parent of a compound that is named as a salt. Where two headings read alike, the source gives them in different places.
Legend:
[1] = cited from earlier work
[2] = hydrogen peroxide scavenging assay; format: biochemical; details: isolated and reference compounds; read-out: H2O2 assay EC50
Protocol: Hydrogen peroxide scavenging assay was performed in accordance with the method of Ichikawa, M. and colleagues (2002). Sample solutions at appropriate concentration were prepared using phosphate buffer (100 mM, pH 6.0). Sample solution ([…]), phosphate buffer (30 mL, 100 mM, pH 6.0), and hydrogen peroxide solution (10 mL, 500 mM) were mixed in 96-well clear microplate (VWR, Ismaning, Germany). Then peroxidase (40 mL, 150 U/mL) and ABTS (40 mL, 0.1%) were added. The microplate was incubated at 37° C. for 15 min. The absorbance (A) of each well was measured at 414 nm with FLUOstar OPTIMA (BMG LABTECH, Offenburg, Germany). […] After freeze-drying three times 1 MPLC fractions M1-M8 were analyzed in natural concentrations.
E=[(A−Ablank)control−(A−Ablank)test]/(A−Ablank)control·100

[3] = oxygen radical absorbance capacity (ORAC) assay; format: biochemical; details: isolated and reference compounds
Protocol: ORAC assay was carried out according to the method of Ou, G. and colleagues (1993) with some modifications. Trolox and FL were used as a standard and a fluorescent probe respectively. Free radicals were produced by AAPH to oxidize FL. Different dilutions of Trolox ([…]) and appropriate dilutions of tested sample were prepared with phosphate buffer (10 mM, pH 7.4). Trolox dilution ([…]) or sample solution were pipetted into a well of 96-well black microplate (VWR) and then FL (150 mL, 10 nM) was added. The reaction mixture was incubated at 37° C. for 30 min Afterward s, fluorescence was measured every 90 sec at the excitation of 485 nm and the emission of 520 nm using FLUOstar OPTIMA. After 3 cycles, AAPH ([…], 240 mM) was added quickly, and then the measurement was resumed and continued up to 90 min (60 cycles in total). The background signal was determined using the first 3 cycles. The ORAC values were calculated according to the method of Ou, G. and colleagues (1993) and expressed as Trolox equivalent (mmol TE/mmol). After freeze-drying in triplicate, MPLC fractions M1-M8 were analyzed in natural concentrations.

[4] = tested on: guinea pig gallbladder smooth muscle cells (GBSM); assay: intracellular microelectrode recording of action potentials, gallbladder smooth muscle; details: extract 0.5 g stem bark powder/100 ml; manniflavanone 41.0 mg/100 mL Krebs
Protocol: (§1) Calcium imaging and standard intracellular microelectrode recording were used to determine the effect of G. buchananii extract on the discharge and frequency of Ca^2+ transients, Ca^2+ flashes and Ca^2+ waves. Six fractions (M1-M5 and M7) collected using medium pressure liquid chromatography and manniflavanone, a pure compound from M3 were analyzed for the effect on the resting membrane potential and action potentials in intact GBSM preparations, and slow wave action potentials in CSMC in guinea pig and porcine colon.

[5] = tested on: guinea pig colon circular smooth muscle cells (CSMC); assay: intracellular recording of slow wave action potentials, colon circular smooth muscle; details: extract 0.5 g stem bark powder/100 ml Krebs; manniflavanone 41.0 mg/100 mL Krebs
Protocol: as §1

[6] = tested on: guinea pig distal colon; assay: fecal pellet propulsion motility assay in isolated distal colon (GIMM); details: MPLC fractions and their main compounds, serosal application in Krebs
Protocol: Gastrointestinal Motility Assays: Segments (˜10 cm long) of distal colon were pinned on either end in a Sylgard-lined 50 mL organ bath, continuously perfused with oxygenated Krebs solution (rate: 10 mL min^−1) and maintained at temperatures between 36 and 37° C. Tissues were initially allowed to equilibrate for 30 mins in re-circulating Krebs solution. Colonic motility was studied using the Gastronintestinal Motility Monitoring system (GIMM; Med-Associates Inc., Saint Albans, Vt., USA), which included a digital video camera (Catamount Research and Development Inc, St Albans, Vt., USA) to film fecal pellet propulsion. Trials were separated by 5-min recovery periods between successive pellet runs. The GIMM system software calculated velocities by tracking pellets as they traversed colon segments. After initial equilibration, five pellet propulsion trials in vehicle solution were obtained to determine the basal velocity for each tissue preparation. To reduce variations between runs and experiments, the values obtained were used to generate a normalized basal velocity by dividing the values of the 4th-5th runs by the value of the 1st-2nd runs. Garcinia buchananii stem bark extract and test compounds dissolved in 100 mL of Krebs solution were superfused either into the organ bath or into the lumen of the colon using polyethylene tubing [PE 205; outside diameter 9.5 mm (BD-Worldwide, Sparks, Md., USA)]. The effects of extract and test compounds were evaluated by obtaining velocities of four trials taken at 5-min intervals (5-20 min) Normalized velocity data for these treatments were obtained by dividing the test velocities acquired by the average velocity of the five pellet propulsion runs performed in vehicle solution (runs 1-5, above). Normalized data became ratios without units, and were presented as a percent velocity of basal activity for each tissue. Velocities of pellet propulsion were also studied during washout of tissue with Krebs solution (after extract or test compound application) for 20 min
A segment (˜10-12 cm long) of distal colon was pinned on either end in a Sylgard-lined 50 mL organ bath being continuously perfused with oxygenated Krebs solution (rate: 10 mL min^−1) and maintained at temperatures between 36-37° C. Nail-polish-coated guinea-pig pellets similar in shape and size to the “native” colonic fecal pellets were used to determine propulsive velocities using the Gastrointestinal Motility Monitoring system (Med-Associates Inc., Saint Albans, Vt., USA) for filming pellet propulsion as described by Hoffman and others (2010). Velocity was calculated based on the time required for pellets to traverse 5-6 cm of the central colon segment ending 1 cm from the aboral end. Data collection started after 30 minutes of equilibration. A five-minute interval was used to allow equilibration of motor activity between successive pellet runs. Baseline velocities were measured for 20 minutes.
In intraluminal studies, the aqueous extract was prepared by suspending 2 g of G. buchananii bark powder in 100 mL Krebs, whereas 1 g G. buchananii bark powder prepared in the same manner was used for bath (serosal) applications. The extract-Krebs mixture was continuously stirred for 30 minutes and filtered using analytical filter paper (Schleicher and Schuell Blue Ribbon filter paper 589/3; 0.2 μm retention). Garcinia buchananii extract and test compounds were delivered to isolated colons in Krebs solution, and evaluated for effects on pellet propulsion during 20-25 minute time intervals. Intraluminal drug deliveries (350 μL min^−1 Krebs solution) were performed using polyethylene tubing (PE 205; outside diameter 9.5 mm) inserted ˜1.5 cm into the oral end of the segments. In bath deliveries, G. buchananii extract and test compounds were superfused directly into the organ bath. Studies involving PTLC fractions were performed using the organ bath delivery method only.

[7] = tested on: S-neurons in the myenteric ganglia of guinea pig distal colon; assay: intracellular recording of evoked fast excitatory postsynaptic potentials (fEPSPs); details: naloxone 10 μmol/L; yohimbine 1 μmol/L
Protocol: Intracellular Recording: To study fast excitatory postsynaptic potentials, longitudinal muscle-myenteric plexus preparations of guinea pig colon were pinned and stretched in a 2.5 mL Sylgard-lined recording chamber. […] Myenteric ganglia were visualized at ×200 using Hoffman modulation contrast optics on an inverted microscope (Nikon Diaphot, […]., USA). Individual neurons were randomly impaled using glass microelectrodes, which were filled to the shoulder with 1.0 mol L^-1 KCl and topped off with 2.0 mol L^-1 KCl, generating a range of 50-150 MΩ input resistance. Membrane potential was measured with an Axoclamp-2A amplifier (Axon Instruments, Union City, Calif., USA) and the electrical signals were acquired and analyzed using PowerLab Chart version 5.01 (ADlnstruments, Castle Hills, Australia). Input resistance and resting membrane potential were determined for neurons before and after exposure to G. buchananii extract. Using monopolar extracellular electrodes made from Teflon®-insulated platinum wire, synaptic input to myenteric neurons was elicited by direct single pulse stimuli (0.5 ms duration) applied to interganglionic fiber tracts. […] The amplitude was measured by taking the difference in voltage between the peak of each fEPSP and the membrane holding potential. […]

[8] = Values from Wolfe and Liu (stereochemistry of naringenin and taxifolin not stated)

## Oc1cc(O)c2c(c1)O[C@H](c1ccc(O)c(O)c1)[C@H](O)C2 [(−)-epicatechin]
[1]; [8]
  ORAC, Literature: 9.14^6 μmol TE/μmol
[2]
  EC50: 4.1 µM
[3]
  ORAC assay: 9.65 μmol TE/μmol

## O=C1c2c(cc(O)c([C@@H]3O[C@H](CO)[C@@H](O)[C@H](O)[C@H]3O)c2O)O[C@H](c2ccc(O)c(O)c2)[C@H]1O [Compound 1, (2R,3R)-Taxifolin-6-C-β-D-glucopyranoside]
[2]
  EC50: 11 µM
[3]
  ORAC assay: 9.57 μmol TE/μmol

## O=C1c2c(cc(O)c([C@@H]3OC(CO)[C@@H](O)[C@H](O)C3O)c2O)O[C@H](c2ccc(O)cc2)[C@H]1O (stereo partly drawn) [Compound 2, (2R,3R)-Aromadendrin-6-C-β-D-glucopyranoside]
[2]
  EC50: 10.9 µM
[3]
  ORAC assay: 4.23 μmol TE/μmol

## O=C1c2c(O)cc(O)c([C@@H]3C(=O)c4c(O)cc(O)cc4O[C@H]3c3ccc(O)c(O)c3)c2O[C@H](c2ccc(O)c(O)c2)[C@H]1O [Compound 3, (2R,3S,2″R,3″R)-manniflavanone]
[4]
  action potentials in GBSM: inhibits action potentials
[2]
  EC50: 2.8 µM
[5]
  slow wave action potentials (SW) in CSMC: inhibits spikes of SW
[3]
  ORAC assay: 13.73 μmol TE/μmol

## O=C1c2c(O)cc(O)c([C@@H]3C(=O)c4c(O)cc(O)cc4O[C@H]3c3ccc(O)cc3)c2O[C@H](c2ccc(O)c(O)c2)[C@H]1O [Compound 4, (2R,3S,2″R,3″R)-GB-2]
[6]
  effect on pellet propulsion velocity: inhibits guinea pig colon propulsive motility
[2]
  EC50: 2.2 µM
[3]
  ORAC assay: 12.10 μmol TE/μmol

## O=C1C[C@@H](c2ccc(O)c(O)c2)Oc2c1c(O)cc(O)c2[C@@H]1C(=O)c2c(O)cc(O)cc2O[C@H]1c1ccc(O)c(O)c1 [Compound 5, (2R,3S,2″S)-2-(3,4-dihydroxyphenyl)-2,2′,3,3′-tetrahydro-5,5,7,7-tetrahydroxy-2′-(3,4-dihydroxyphenyl)-[3,8′-Bi-4H-1-benzopyran]-4,4′-dione]
[6]
  effect on pellet propulsion velocity: inhibits guinea pig colon propulsive motility
[2]
  EC50: 14.4 µM
[3]
  ORAC assay: 10.50 μmol TE/μmol

## O=C1c2c(O)cc(O)cc2O[C@H](c2ccc(O)c(O)c2)[C@H]1O [Compound 6, (+)-(2R,3R)-Taxifolin]
[2]
  EC50: 11.3 µM
[3]
  ORAC assay: 7.63 μmol TE/μmol

## O=C1O[C@H]([C@@H](O)CO)C(O)=C1O [ascorbic acid]
[2]
  EC50: 18.5 µM
[3]
  ORAC assay: 0.34 μmol TE/μmol

## C=CCN1CC[C@]23c4c5ccc(O)c4O[C@H]2C(=O)CC[C@@]3(O)[C@H]1C5 [naloxone, naloxone hydrochloride]
[7]
  effect of antagonist alone on fEPSPs: had no effect on fEPSPs

## O=c1c(O)c(-c2ccc(O)c(O)c2)oc2cc(O)cc(O)c12 [quercetin]
[1]; Values from Ou et al.
  ORAC, Literature: 7.28 μmol TE/μmol
[1]; [8]
  ORAC, Literature: 8.04 μmol TE/μmol
[2]
  EC50: 6.1 µM
[3]
  ORAC assay: 5.61 μmol TE/μmol

## COC(=O)[C@@H]1[C@H]2C[C@H]3c4[nH]c5ccccc5c4CCN3C[C@@H]2CC[C@@H]1O [yohimbine, yohimbine hydrochloride]
[7]
  effect of antagonist alone on fEPSPs: had no effect on fEPSPs

From patent US20140348966A1, “GARCINIA BUCHANANII BAKER COMPOUNDS, COMPOSITIONS AND RELATED METHODS” (priority 2011, published 2014)
